The results in this text go back to US10626125B2, “1,1,1-trifluoro-3-hydroxypropan-2-yl carbamate derivatives as MAGL inhibitors” (PFIZER INC., priority 2017, dated 2020).

SMILES strings stand for the structures. Where two headings read alike, the source gives them in different places.

The term IC50 denotes the point on the concentration scale where inhibition reaches its midpoint.

For test [1], the target named is T1, human recombinant Monoacylglycerol Lipase (Homo sapiens, UniProt Q99685).
T1 sequence (Q99685 1-303): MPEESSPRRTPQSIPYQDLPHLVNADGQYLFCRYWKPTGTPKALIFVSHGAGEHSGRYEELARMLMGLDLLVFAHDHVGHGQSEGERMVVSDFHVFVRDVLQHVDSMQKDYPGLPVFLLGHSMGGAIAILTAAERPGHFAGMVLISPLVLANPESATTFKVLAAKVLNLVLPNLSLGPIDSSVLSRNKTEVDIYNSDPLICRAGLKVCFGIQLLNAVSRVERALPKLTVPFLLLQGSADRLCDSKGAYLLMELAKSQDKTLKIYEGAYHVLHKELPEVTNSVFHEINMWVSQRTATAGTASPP
Nature of the test: MAGL enzymatic assay (IC50; 7-HCA substrate added at T=0 min or T=30 min). Type of test: biochemical. As to conditions: geometric mean of 2-5 determinations unless otherwise indicated.

The target of test [2] is T1, human recombinant Monoacylglycerol Lipase. Nature of the test: MAGL inactivation (kinact/KI from enzyme progress curves, T=0 min protocol). As to conditions: from plot of Kobs vs. compound concentration, geometric mean of 2-5 determinations (b: ≥6).
Setting [3] is: MAGL (T = 30 min) IC50, substrate 7-HCA added after 30 minute incubation (T=30 min).
Where [4] appears, read: substrate 7-HCA added immediately (T=0 min), read-out: MAGL (T = 0 min) IC50.

In the case of `O=C(O[C@H](CO)C(F)(F)F)N1CCC2(CC1)CC(c1cccc(C(F)(F)F)n1)C2` [Example 76, (2R)-1,1,1-trifluoro-3-hydroxypropan-2-yl 2-[6-(trifluoromethyl)pyridin-2-yl]-7-azaspiro[3.5]nonane-7-carboxylate], the IC50 in test [1] (setting [3]) turned out to be 0.2 nM; in test [1] (setting [4]), 2 nM. In test [2], the “MAGL kinact/KI” value is on record as 206000 1/s per M.

As to `O=C(O[C@H](CO)C(F)(F)F)N1CCC2(CC1)CC(n1cc(C(F)F)cn1)CO2` (single isomer, unassigned) [Example 20], the IC50 in test [1] (setting [3]) stood at 11 nM; in test [1] (setting [4]) it was 107 nM. In addition, the “MAGL kinact/KI” value in test [2] was 7170 1/s per M.

With `O=C(O[C@H](CO)C(F)(F)F)N1CCC2(CC1)CC(c1cc(C(F)F)ccn1)C2` [Example 78, (2R)-1,1,1-trifluoro-3-hydroxypropan-2-yl 2-[4-(difluoromethyl)pyridin-2-yl]-7-azaspiro[3.5]nonane-7-carboxylate], the IC50 in test [1] (setting [3]) came out at 1 nM; in test [1] (setting [4]), 9 nM. For the same compound, the “MAGL kinact/KI” value in test [2] was 75400 1/s per M.

`O=C(O[C@H](CO)C(F)(F)F)N1CCC2(CC1)CC(c1ccccc1F)CO2` (single isomer, unassigned) [Example 25]: the IC50 is 2 nM in test [1] (setting [3]) and 20 nM in test [1] (setting [4]). For the same compound, in test [2], the “MAGL kinact/KI” value is on record as 25500 1/s per M.

In the case of `CN([C@H]1COC2(CCN(C(=O)O[C@H](CO)C(F)(F)F)CC2)C1)S(=O)(=O)C(C)(C)C` [Example 6, (2R)-1,1,1-Trifluoro-3-hydroxypropan-2-yl (3R)-3-[(tert-butylsulfonyl)(methyl)amino]-1-oxa-8-azaspiro[4.5]decane-8-carboxylate], the IC50 in test [1] (setting [3]) is 8 nM; in test [1] (setting [4]) it was 98 nM. Also, the “MAGL kinact/KI” value in test [2] is recorded as 6630^b 1/s per M.

`O=C(O[C@H](CO)C(F)(F)F)N1CCC2(CC1)CC(n1cc(C3CC3)cn1)CO2` (mixture of isomers) [Example 23, (2R)-1,1,1-trifluoro-3-hydroxypropan-2-yl 3-(4-cyclopropyl-1H-pyrazol-1-yl)-1-oxa-8-azaspiro[4.5]decane-8-carboxylate, mixture of diastereomers]: the values for the IC50 in test [1] (setting [3]) and in test [1] (setting [4]) were 9 nM and 68 nM, respectively. Besides, in test [2], the “MAGL kinact/KI” value is reported as 9650 1/s per M.

As to `N#Cc1ccc(C2CC3(CCN(C(=O)O[C@H](CO)C(F)(F)F)CC3)C2)nc1` [Example 84, (2R)-1,1,1-trifluoro-3-hydroxypropan-2-yl 2-(5-cyanopyridin-2-yl)-7-azaspiro[3.5]nonane-7-carboxylate], the IC50 in test [1] (setting [3]) came out at 15 nM; in test [1] (setting [4]), 143 nM. The “MAGL kinact/KI” value in test [2] is listed as 4000 1/s per M.

For the compound `O=C(O[C@H](CO)C(F)(F)F)N1CCC2(CC1)CC(Oc1ccnc(C(F)(F)F)c1)C2` [Example 59, (2R)-1,1,1-trifluoro-3-hydroxypropan-2-yl 2-{[2-(trifluoromethyl)pyridin-4-yl]oxy}-7-azaspiro[3.5]nonane-7-carboxylate], the IC50 in test [1] (setting [3]) worked out at 1 nM; in test [1] (setting [4]) it was 5 nM. Moreover, the “MAGL kinact/KI” value in test [2] was 137000 1/s per M.

Consider `N#Cc1ccc(F)c(C2COC3(CCN(C(=O)O[C@H](CO)C(F)(F)F)CC3)C2)c1` (single isomer, unassigned) [Example 30], for which the IC50 in test [1] (setting [3]) was 4 nM; in test [1] (setting [4]) it was 54 nM. Further, the “MAGL kinact/KI” value in test [2] was 14400 1/s per M.

As for `CN(C(=O)C1CCCC1)[C@H]1COC2(CCN(C(=O)O[C@H](CO)C(F)(F)F)CC2)C1` [Example 5, (2R)-1,1,1-Trifluoro-3-hydroxypropan-2-yl (3R)-3-[(cyclopentylcarbonyl)(methyl)amino]-1-oxa-8-azaspiro[4.5]decane-8-carboxylate], the figures for the IC50 in test [1] (setting [3]) and in test [1] (setting [4]) were 7 nM and 67 nM, respectively. Also, the “MAGL kinact/KI” value in test [2] is given as 5530 1/s per M.

In the case of `CN(C1CC2(CCN(C(=O)O[C@H](CO)C(F)(F)F)CC2)C1)S(=O)(=O)c1ccccc1` [Example 45, (2R)-1,1,1-trifluoro-3-hydroxypropan-2-yl 2-[methyl(phenylsulfonyl)amino]-7-azaspiro[3.5]nonane-7-carboxylate], the values for the IC50 in test [1] (setting [3]) and in test [1] (setting [4]) were 1 nM and 9 nM, respectively. For the same compound, the “MAGL kinact/KI” value in test [2] is on record as 63200 1/s per M.

`O=C(O[C@H](CO)C(F)(F)F)N1CCC2(CC1)CC(c1ccc(C(F)(F)F)cn1)C2` [Example 79, (2R)-1,1,1-trifluoro-3-hydroxypropan-2-yl 2-[5-(trifluoromethyl)pyridin-2-yl]-7-azaspiro[3.5]nonane-7-carboxylate]: the IC50 in test [1] (setting [3]) worked out at 1 nM; in test [1] (setting [4]), 8 nM. Further, the “MAGL kinact/KI” value in test [2] was 63500 1/s per M.

On to `O=C(O[C@H](CO)C(F)(F)F)N1CCC2(CCC(c3ccc(F)cn3)CO2)CC1` (single isomer, unassigned) [Example 74], for which the IC50 in test [1] (setting [3]) amounted to 6 nM; in test [1] (setting [4]) it was 69 nM. For the same compound, the “MAGL kinact/KI” value in test [2] is 7140 1/s per M.

For the compound `O=C(O[C@H](CO)C(F)(F)F)N1CCC2(CC1)CC(c1ccc(F)cc1F)CO2` (single isomer, unassigned) [Example 33], the IC50 in test [1] (setting [3]) is 1 nM; in test [1] (setting [4]), 10 nM. Besides, the “MAGL kinact/KI” value in test [2] is on record as 53400 1/s per M.

Regarding `Cc1cnn(C2COC3(CCN(C(=O)O[C@H](CO)C(F)(F)F)CC3)C2)c1` (single isomer, unassigned) [Example 24], the half-maximal inhibitory concentration (IC50) was determined as 12 nM in test [1] (setting [3]) and 115 nM in test [1] (setting [4]). In test [2], the “MAGL kinact/KI” value was 7840 1/s per M.

Take `CN(C(=O)Cc1ccccc1)C1CC2(CCN(C(=O)O[C@H](CO)C(F)(F)F)CC2)C1` [Example 44, (2R)-1,1,1-trifluoro-3-hydroxypropan-2-yl 2-[methyl(phenylacetyl)amino]-7-azaspiro[3.5]nonane-7-carboxylate]: the results for the IC50 in test [1] (setting [3]) and in test [1] (setting [4]) were 4 nM and 40 nM, respectively. Besides, in test [2], the “MAGL kinact/KI” value is on record as 13800 1/s per M.

As to `O=C(O[C@H](CO)C(F)(F)F)N1CCC2(CC1)CC(c1ccc(C(F)F)nc1)CO2` (single isomer, unassigned) [Example 37], the half-inhibitory concentration (IC50) was determined as 8 nM in test [1] (setting [3]) and 57 nM in test [1] (setting [4]). The “MAGL kinact/KI” value in test [2] was 3840 1/s per M.

`O=C(O[C@H](CO)C(F)(F)F)N1CCC2(CC1)CC(c1ccc(C(F)F)nc1)C2` [Example 82, (2R)-1,1,1-trifluoro-3-hydroxypropan-2-yl 2-[6-(difluoromethyl)pyridin-3-yl]-7-azaspiro[3.5]nonane-7-carboxylate]: the IC50 in test [1] (setting [3]) amounted to 2 nM; in test [1] (setting [4]), 24 nM. Also, the “MAGL kinact/KI” value in test [2] is on record as 19300 1/s per M.

As for `O=C(O[C@H](CO)C(F)(F)F)N1CCC2(CC1)CC(n1cc(C(F)F)cn1)C2` [Example 66, (2R)-1,1,1-trifluoro-3-hydroxypropan-2-yl 2-[4-(difluoromethyl)-1H-pyrazol-1-yl]-7-azaspiro[3.5]nonane-7-carboxylate], the IC50 came to 4 nM in test [1] (setting [3]) and 40 nM in test [1] (setting [4]). The “MAGL kinact/KI” value in test [2] was 15700 1/s per M.

As to `O=C(O[C@H](CO)C(F)(F)F)N1CCC2(CC1)CC(c1ccc(F)cn1)CO2` (single isomer, unassigned) [Example 17], the values for the IC50 in test [1] (setting [3]) and in test [1] (setting [4]) were 26 nM and 297 nM, respectively. The “MAGL kinact/KI” value in test [2] is on record as 1390^b 1/s per M.

Regarding `O=C(O[C@H](CO)C(F)(F)F)N1CCC2(CC1)CC(Oc1cccc(F)c1)C2` [Example 51, (2R)-1,1,1-trifluoro-3-hydroxypropan-2-yl 2-(3-fluorophenoxy)-7-azaspiro[3.5]nonane-7-carboxylate], the IC50 amounted to 0.3 nM in test [1] (setting [3]) and 4 nM in test [1] (setting [4]). Besides, in test [2], the “MAGL kinact/KI” value was 128000 1/s per M.

With `N#Cc1ccc(F)c(C2COC3(CCN(C(=O)O[C@H](CO)C(F)(F)F)CC3)C2)c1` (single isomer, unassigned) [Example 29], the IC50 in test [1] (setting [3]) came out at 17 nM; in test [1] (setting [4]), 184 nM. Besides, in test [2], the “MAGL kinact/KI” value is 3250 1/s per M.
